Test results from ChEMBL document CHEMBL5038568, “Bioactive Cyclization Optimizes the Affinity of a Proprotein Convertase Subtilisin/Kexin Type 9 (PCSK9) Peptide Inhibitor” (J Med Chem, 2021).
Numbered stars: 1 amine (or outer) side, 2 acyl side, 3 side chain; on linkers, the order of the positions; unused ones are H or OH. Bridge positions count the residues as written; N and C are the ends. Peptide text beside a SMILES is read from it. X1 = N[C@@H](CS[*:1])C(=O)NC(=O)[C@H](CO)N[*:2]

Tests used:
[1] = target: T1, Proprotein convertase subtilisin/kexin type 9 (Homo sapiens, UniProt Q8NBP7); assay: Binding affinity to human PCSK9 assessed as dissociation constant
[2] = target: T1, Proprotein convertase subtilisin/kexin type 9; assay: Binding affinity to full length C-terminal Avi/His6-tagged human PCSK9 expressed in Expi293 cells assessed as dissociation rate constant (Koff) by surface plasmon resonance assay
[3] = target: T1, Proprotein convertase subtilisin/kexin type 9; assay: Binding affinity to full length C-terminal Avi/His6-tagged human PCSK9 expressed in Expi293 cells assessed as change in enthalpy by isothermal titration calorimetric analysis
HepG2 = assay: Cytotoxicity against human HepG2 cells assessed as reduction in cell viability at 10 uM incubated for 48 hrs by MTT assay; type: toxicity, cell-based; conditions: hepg2, 48 h
[4] = target: T1, Proprotein convertase subtilisin/kexin type 9; assay: Binding affinity to full length C-terminal Avi/His6-tagged human PCSK9 expressed in Expi293 cells assessed as equilibrium dissociation constant by surface plasmon resonance assay
[5] = target: T1, Proprotein convertase subtilisin/kexin type 9; assay: Binding affinity to full length C-terminal Avi/His6-tagged human PCSK9 expressed in Expi293 cells assessed as change in entropy by isothermal titration calorimetric analysis
[6] = target: T1, Proprotein convertase subtilisin/kexin type 9; assay: Inhibition of PCSK9 in human HepG2 cells assessed as restoration of surface LDLR level at 50 nM incubated for 2 hrs by Western blot analysis (Rvb= 37.5 +/- 13.9%); type: cell-based; parameters: scale not given: the % may be the effect or the level left
[7] = target: T1, Proprotein convertase subtilisin/kexin type 9; assay: Inhibition of tEGF-A[HA] binding to biotinylated human PCSK9 incubated for 2 hrs by ELISA based competitive binding assay
[8] = target: T1, Proprotein convertase subtilisin/kexin type 9; assay: Inhibition of PCSK9 in human HepG2 cells assessed as restoration of PCSK9-induced reduction in fluorescent LDL uptake at 50 nM incubated for 2 hrs by fluorescence plate reader analysis (Rvb= 46.1 +/- 5.6%); type: cell-based; parameters: scale not given: the % may be the effect or the level left

K [2] [s⁻¹] | deltaH [3] [kcal/mol] | Kd [4] [nM] | deltaS [5] [cal/mol/K] | Activity [6] [%] | IC50 [7] [nM] | Activity [8] [%] | SMILES | Kd [1] [nM] | Activity (HepG2)
 |  |  |  |  |  |  | CC(C)C[C@H](NC(=O)[C@H](Cc1ccc(O)cc1)NC(=O)[C@H](CCC(=O)O)NC(=O)[C@H](CCC(=O)O)NC(=O)[C@H](Cc1c[nH]c2ccccc12)NC(=O)[C@H](CO)NC(=O)[C@@H](NC(=O)[C@H](Cc1ccccc1)NC(=O)[C@@H](NC(=O)[C@@H](N)[C@@H](C)O)C(C)C)[C@@H](C)O)C(=O)N[C@@H](CC(=O)O)C(=O)N[C@@H](Cc1c[nH]c2ccccc12)C(=O)N[C@H](C(=O)O)C(C)C | 660 | 
0.02 | -37.3 | 974 | -89.5 | 112 | 1260 | 97.1 | CC(C)C[C@@H]1NC(=O)[C@H](Cc2ccc(O)cc2)NC(=O)[C@H](CCC(=O)O)NC(=O)[C@H](CCC(=O)O)NC(=O)[C@H](Cc2c[nH]c3ccccc23)NC(=O)[C@H](CO)NC(=O)[C@H]([C@@H](C)O)NC(=O)[C@H](Cc2ccccc2)NC(=O)[C@H](C(C)C)NC(=O)[C@H]([C@@H](C)O)NC(=O)[C@@H](N)CSSC[C@H](N)C(=O)NC(=O)[C@H](CO)NC(=O)[C@H](CC(N)=O)NC(=O)[C@H](CCCNC(=N)N)NC(=O)[C@@H]2CCCN2C(=O)[C@H](Cc2cnc[nH]2)NC(=O)[C@H](CC(C)C)NC(=O)[C@H](CC(N)=O)NC(=O)[C@H](CC(N)=O)NC(=O)[C@H](Cc2c[nH]c3ccccc23)NC(=O)[C@H](CC(=O)O)NC1=O (H-CTVFTSWEEYLDWNNLHPRN; linker 1-C via X1) |  | Non-Toxic
